Source: patent publication US11919858B2, “Aminonapthoquinone compounds and pharmaceutical composition for blocking ubiquitination-proteasome system in diseases” (Calgent Biotechnology Co., Ltd., priority 2015, dated 2024)

Tests used:
A431 = assay: Growth inhibition assay; assay type: cell-based; conditions: Homo sapiens, A-431; A431 (Skin cancer), 48 hours
Procedure: (§1) Cells were seeded in 96-well plastic plates and exposed to MPT0L056 for 48 hours. Cell viability was assessed using the 3-(4,5-dimethylthiazol-2-yl)-2,5-diphenyltetrazolium bromide assay. Growth inhibition was expressed as the percentage of surviving cells in drug-treated versus DMSO-treated control cells.

T98 = assay: Growth inhibition assay; assay type: cell-based; conditions: Homo sapiens; T98 (Brain cancer), 48 hours
Procedure: as §1

HUVECs = assay: Growth inhibition assay; assay type: cell-based; conditions: Homo sapiens, HUVEC; HUVECs (Normal cells), 48 hours
Procedure: as §1

PC-6 = assay: Growth inhibition assay; assay type: cell-based; conditions: Homo sapiens; PC-6 (Lung cancer), 48 hours
Procedure: as §1

KATO III = assay: Growth inhibition assay; assay type: cell-based; conditions: Homo sapiens; KATO III (Stomach cancer), 48 hours
Procedure: as §1

ZR-75 = assay: Growth inhibition assay; assay type: cell-based; conditions: ZR75; ZR-75 (Breast cancer), 48 hours
Procedure: as §1

BxPC3 = assay: Growth inhibition assay; assay type: cell-based; conditions: Homo sapiens, BXPC-3; BxPC3 (Pancreas cancer), 48 hours
Procedure: as §1

[1] = tested on: IL-6 production in human rheumatoid arthritis fibroblast-like synoviocyte cells; assay: IL-6 production in RAFLS cells (ELISA); assay type: cell-based; conditions: RA-FLS, 24 h
Procedure: Cell culture. Human rheumatoid arthritis fibroblast-like synoviocytes (RAFLS) from Cell Application Inc. (San Diego, CA, USA) were grown in synoviocyte growth medium from the same supplier.
IL-6 Determination. RA-FLS (2.5×10^4) was treated with various concentrations of MPT0L056 for 24 h, then the medium was collected and assayed for IL-6 using commercial ELISA kit.

[2] = tested on: human MDA-MB-231 breast adenocarcinoma; assay: Human MDA-MB-231 breast cancer xenograft in female nude mice (TMU-MDA-MB-231-e0002)
[3] = tested on: human RPMI8226 multiple myeloma; assay: Human RPMI8226 multiple myeloma xenograft in female nude mice (TMU-RPMI8226-e0001); assay type: in vivo
Source text: The 42-day study utilized five groups of mice (n=6) bearing established human PRMI8226 multiple myeloma with mean volumes of ˜85 mm^3 on D1. […] (FIG. 3).

ITCH = ITCH (Homo sapiens, UniProt Q96J02); assay: Blocking of ITCH self-ubiquitination, in vivo assay; assay type: cell-based; conditions: concentration of 0.5 um and 5 um, FIG. 2
Source text: MPT0L056 of the invention was used to test the blocking of ITCH self-ubiquitination. […] [Reference for in vitro assay: Scialpi F, Malatesta M, Peschiaroli A, Rossi M, Melino G, and Bernassola F. Itch self-polyubiquitylation occurs through lysine-63 linkages. Biochem Pharmacol. 2008 Dec. 1; 76(11):1515-21. Reference for in vivo assay: Chang L, Kamata H, Solinas G, Luo J L, Maeda S, Venuprasad K, Liu Y C, and Karin M. The E3 ubiquitin ligase itch couples JNK activation to TNFalpha-induced cell death by inducing c-FLIP(L) turnover. Cell. 2006 Feb. 10; 124(3):601-131

[4] = MPT0L056 25 mg/kg p.o. once every day for 42 days
[5] = MPT0L056 50 mg/kg p.o. once every day for 42 days

Sequence of ITCH (Q96J02 whole entry, species assumed): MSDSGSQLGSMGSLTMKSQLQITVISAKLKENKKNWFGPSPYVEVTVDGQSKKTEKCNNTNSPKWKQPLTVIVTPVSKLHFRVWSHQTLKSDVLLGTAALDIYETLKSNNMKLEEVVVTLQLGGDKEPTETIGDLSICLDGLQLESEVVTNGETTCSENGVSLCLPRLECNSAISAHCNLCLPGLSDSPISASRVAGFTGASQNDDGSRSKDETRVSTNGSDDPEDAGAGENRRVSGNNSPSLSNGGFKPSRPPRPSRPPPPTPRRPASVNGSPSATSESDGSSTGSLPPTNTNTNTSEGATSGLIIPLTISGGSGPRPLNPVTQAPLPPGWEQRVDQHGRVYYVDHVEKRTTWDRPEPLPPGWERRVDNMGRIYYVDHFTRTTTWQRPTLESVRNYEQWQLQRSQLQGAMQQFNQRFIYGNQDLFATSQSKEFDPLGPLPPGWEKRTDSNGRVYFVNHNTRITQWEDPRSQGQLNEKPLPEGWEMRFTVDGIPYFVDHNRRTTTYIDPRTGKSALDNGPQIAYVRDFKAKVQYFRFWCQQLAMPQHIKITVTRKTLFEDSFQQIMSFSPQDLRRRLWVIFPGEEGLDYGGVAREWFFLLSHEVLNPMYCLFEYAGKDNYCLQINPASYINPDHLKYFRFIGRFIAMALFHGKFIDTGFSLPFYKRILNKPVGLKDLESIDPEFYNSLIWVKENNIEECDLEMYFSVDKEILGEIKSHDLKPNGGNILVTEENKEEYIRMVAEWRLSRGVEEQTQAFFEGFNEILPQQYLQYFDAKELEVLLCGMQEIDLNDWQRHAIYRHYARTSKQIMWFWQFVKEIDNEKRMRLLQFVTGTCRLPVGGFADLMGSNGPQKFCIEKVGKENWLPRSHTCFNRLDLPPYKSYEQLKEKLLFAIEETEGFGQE

Structure (SMILES): O=C(Nc1ccncc1)c1ccc(CNC2=C(Cl)C(=O)c3ccccc3C2=O)cc1 [MPT0L056]
- GI50 (A431): 1200 nM
- GI50 (T98): 5700 nM
- GI50 (HUVECs): 16000 nM
- GI50 (PC-6): 1800 nM
- GI50 (KATO III): 2400 nM
- GI50 (ZR-75): > 5000 nM
- GI50 (BxPC3): 1200 nM
- IC50 [1]: 7260 nM
- tumor growth delay ([2]; MPT0L056 25 mg/kg p.o. once every day for ten days): did not significantly express tumor growth delay
- antitumor activity ([2]; MPT0L056 50 mg/kg p.o. once every day for ten days): produced significant antitumor activity
- antitumor activity ([2]; MPT0L056 100 mg/kg p.o. once every day for ten days): produced significant antitumor activity
- body weight change ([2]; MPT0L056 100, 50 and 25 mg/kg, FIG. 6): did not significantly affect the animal body weight
- antitumor activity [3, 4]: produced significant antitumor activity
- mice with complete regression (CR) [3, 4]: Two of six
- antitumor activity [3, 5]: produced significant antitumor activity
- mice with complete regression (CR) [3, 5]: Two of six
- body weight change ([3]; MPT0L056 50 and 25 mg/kg, all doses tested, FIG. 4): without significantly body weight loss
- blocking of ITCH's in vivo self-ubiquitination (ITCH): blocks ITCH's in vivo self-ubiquitination
